This passage reports EC50 and CC50 results from patent publication US20230002408A1, “HETEROARYLDIHYDROPYRIMIDINE DERIVATIVES AND METHODS OF TREATING HEPATITIS B INFECTIONS” (JANSSEN PHARMACEUTICA NV, priority 2019, published 2023).

Data set [1] deals with HBV. Briefly: Anti-viral assay in HepG2.2.15 cells: HBV DNA in culture medium by qPCR. Particulars: Hepatitis B virus, HepG2.2.15, 144 h. The class given is cell-based. As to the method:
(§1) HepG2.2.15 (the HepG2.2.15 cell line can be produced by transfection of the HepG2 cell line as described in Sells, Chen, and Acs 1987 (Proc. Natl. Acad. Sci. USA 84: 1005-1009), and the HepG2 cell line is available from ATCC® under number HB-8065™).
(§2) HepG2.2.15 cells were plated into 96-well plate in 2% FBS culture medium at the density of 40,000 cells/well and 5,000 cells/well for HBV inhibitory activity and cytotoxicity determination, respectively. After incubation at 37° C., 5% CO2 overnight, cells were treated with medium containing compounds for 6 days with medium and compounds refreshed after 3 days of treatment. Each compound was tested in a 1:3 serial dilutions at 8 different concentrations in triplicate. The highest concentration of the compounds was 10 uM or 1 uM for anti-HBV activity assay and 100 uM for cytotoxicity determination. Cell viability was determined by CCK-8 assay. After 6 days of compounds treatment, 20 μl CCK-8 reagents were added to each well of cytotoxicity assay plates. Cell plates were incubated at 37° C., 5% CO2 for 2.5 h. The absorbance at 450 nm wavelength and the absorbance at 630 nm wavelength as reference was measured.
The change of HBV DNA level induced by the compounds was assessed by quantitative real-time polymerase chain reaction (qPCR). Briefly, the HBV DNA in the culture medium was extracted using QlAamp 96 DNA Blood Kit according to the manual and then quantified by real-time PCR assay using the primers and probe in the table 1 below.
(§3) EC50 and CC50 values are calculated by the GRAPHPAD PRISM software.
(In qPCR the cycle at which signal appears reflects the starting amount.)

A short description of data set [2]: Cytotoxicity determination in HepG2.2.15 cells (CCK-8 cell viability). Format: cell-based. Particulars: human, 6 days treatment, CCK-8, highest concentration 100 uM. As to the method: as §1, §2, §3
[3] abbreviates: HepG2.2.15 cells, 6 days treatment, HBV DNA in culture medium by real-time PCR, read-out: EC50.

Where two headings read alike, the source gives them in different places.

The EC50 is the concentration giving half of the maximal effect. In general, CC50 refers to the concentration at which the toxic effect on the cells reaches its halfway point. A lower CC50 goes with greater toxicity to the cells. Consider `COC(=O)C1=C(CN2CCO[C@@H]3CN(C(=O)OC(C)(C)C)C[C@H]32)NC(c2ncc(F)cc2F)=N[C@@H]1c1ccc(F)cc1Cl` (single isomer, unassigned) [Reference 1C, (4aR*,7aR*)-tert-butyl 4-4(S*)-6-(2-chloro-4-fluorophenyl)-2-(3,5-difluoropyridin-2-yl)-5-(methoxycarbonyl)-3,6-dihydropyrimidin-4-yl)methyl)hexahydropyrrolo[3,4-b][1,4]oxazine-6(2H)-carboxylate, reference compound], for which, in data set [1] (setting [3]), the EC50 came out at 0.677 µM. Besides, the 50% cytotoxic concentration (CC50) at 6 days in data set [2] amounted to 3.7 µM.
In the same order, the values of `COC(=O)C1=C(CN2CCO[C@H]3CN(CC(C)(C)C(=O)O)C[C@H]32)NC(c2nccs2)=N[C@H]1c1cccc(F)c1C` (single isomer, unassigned) [Compound I-14A, 3-((4aR*,7aS*)-4-0(S*)-6-(3-fluoro-2-methylphenyl)-5-(methoxycarbonyl)-2-(thiazol-2-yl)-3,6-dihydropyrimidin-4-yl)methyl)hexahydropyrrolo[3,4-b][1,4]oxazin-6(2H)-yl)-2,2-dimethylpropanoic acid] are 0.033 µM and over 100 µM.
For the compound `CCOC(=O)C1=C(CN2CCO[C@@H]3CN(CC(C)(C)C(=O)O)CC[C@@H]32)NC(c2nccs2)=N[C@H]1c1cccc(F)c1C` (single isomer, unassigned) [Compound I-11A, (S)-3-((4aR*,8aS*)-1-((5-(Ethoxycarbonyl)-6-(3-fluoro-2-methylphenyl)-2-(thiazol-2-yl)-3,6-dihydropyrimidin-4-yl)methyl)hexahydro-1H-pyrido[3,4-b][1,4]oxazin-6(7H)-yl)-2,2-dimethylpropanoic acid], the EC50 in data set [1] (setting [3]) worked out at 0.048 µM. This compound also had a CC50 at 6 days in data set [2] of 97.9 µM.
For `COC(=O)C1=C(CN2CCO[C@@H]3CN(C(=O)OC(C)(C)C)C[C@@H]32)NC(c2ncc(F)cc2F)=N[C@H]1c1ccc(F)cc1Cl` (single isomer, unassigned) [Reference 1G, (4aS*,7aR*)-tert-butyl 4-(((R*)-6-(2-chloro-4-fluorophenyl)-2-(3,5-difluoropyridin-2-yl)-5-(methoxycarbonyl)-3,6-dihydropyrimidin-4-yl)methyl)hexahydropyrrolo[3,4-b][1,4]oxazine-6(2H)-carboxylate, reference compound] the same measures were over 1 µM and 14.5 µM.
For `COC(=O)C1=C(CN2CCO[C@@H]3CN(C(=O)OC(C)(C)C)C[C@@H]32)NC(c2ncc(F)cc2F)=N[C@@H]1c1ccc(F)cc1Cl` (single isomer, unassigned) [Reference 1H, (4aS*,7aR*)-tert-butyl 4-(((S*)-6-(2-chloro-4-fluorophenyl)-2-(3,5-difluoropyridin-2-yl)-5-(methoxycarbonyl)-3,6-dihydropyrimidin-4-yl)methyl)hexahydropyrrolo[3,4-b][1,4]oxazine-6(2H)-carboxylate, reference compound] the same measures were over 1 µM and 8.7 µM.
In the case of `CCOC(=O)C1=C(CN2CCO[C@H]3CN(CC(C)(C)C(=O)O)C(=O)[C@H]32)NC(c2nccs2)=N[C@H]1c1ccc(F)c(F)c1Cl` (single isomer, unassigned) [Compound I-23A, 3-((4aS*,7aS*)-4-4(R*)-6-(2-chloro-3,4-difluorophenyl)-5-(ethoxycarbonyl)-2-(thiazol-2-yl)-3,6-dihydropyrimidin-4-yl)methyl)-5-oxohexahydropyrrolo[3,4-b][1,4]oxazin-6(2H)-yl)-2,2-dimethylpropanoic acid], the EC50 in data set [1] (setting [3]) was 0.0005 µM. Besides, the cytotoxic concentration (CC50) at 6 days in data set [2] is 45 µM.
For `COC(=O)C1=C(CN2CCO[C@H]3CN(CC(C)(C)C(=O)O)C(=O)[C@H]32)NC(c2nccs2)=N[C@H]1c1cccc(F)c1C` (single isomer, unassigned) [Compound I-19A, 3-((4aS*,7aS*)-4-4(S*)-6-(3-fluoro-2-methylphenyl)-5-(methoxycarbonyl)-2-(thiazol-2-yl)-3,6-dihydropyrimidin-4-yl)methyl)-5-oxohexahydropyrrolo[3,4-b][1,4]oxazin-6(2H)-yl)-2,2-dimethylpropanoic acid] the same measures were 0.028 µM and 59.1 µM.
In the same order, the values of `COC(=O)C1=C(CN2CCO[C@@H]3CN(C(=O)OC(C)(C)C)C[C@H]32)NC(c2ncc(F)cc2F)=N[C@H]1c1ccc(F)cc1Cl` (single isomer, unassigned) [Reference 1A, (4aR*,7aR*)-tert-butyl 4-(((R*)-6-(2-chloro-4-fluorophenyl)-2-(3,5-difluoropyridin-2-yl)-5-(methoxycarbonyl)-3,6-dihydropyrimidin-4-yl)methyl)hexahydropyrrolo[3,4-b][1,4]oxazine-6(2H)-carboxylate, reference compound] are over 1 µM and 14 µM.
`CCOC(=O)C1=C(CN2CCO[C@H]3CN(CC(C)(C)C(=O)O)C(=O)[C@H]32)NC(c2nccs2)=N[C@H]1c1cccc(F)c1Cl` (single isomer, unassigned) [Compound I-18A, 3-((4aS*,7aS*)-4-4(R*)-6-(2-chloro-3-fluorophenyl)-5-(ethoxycarbonyl)-2-(thiazol-2-yl)-3,6-dihydropyrimidin-4-yl)methyl)-5-oxohexahydropyrrolo[3,4-b][1,4]oxazin-6(2H)-yl)-2,2-dimethylpropanoic acid]: the concentration giving a half-maximal response (EC50) in data set [1] (setting [3]) worked out at 0.007 µM. The half-maximal cytotoxic concentration (CC50) at 6 days in data set [2] stood at 62.4 µM.
Turning to `COC(=O)C1=C(CN2CCO[C@H]3CN(CC(C)(C)C(=O)O)C[C@H]32)NC(c2nccs2)=N[C@H]1c1ccc(F)cc1Cl` (single isomer, unassigned) [Compound I-15A, 3-((4aR*,7aS*)-4-((R*)-6-(2-Chloro-4-fluorophenyl)-5-(methoxycarbonyl)-2-(thiazol-2-yl)-3,6-dihydropyrimidin-4-yl)methyl)hexahydropyrrolo[3,4-b][1,4]oxazin-6(2H)-yl)-2,2-dimethylpropanoic acid], the EC50 in data set [1] (setting [3]) was 0.019 µM. This compound also had a cytotoxic concentration (CC50) at 6 days in data set [2] of over 100 µM.
Take `COC(=O)C1=C(CN2CCO[C@H]3CN(C(=O)OC(C)(C)C)C[C@H]32)NC(c2ncc(F)cc2F)=N[C@H]1c1ccc(F)cc1Cl` (single isomer, unassigned) [Reference 1E, tert-butyl (4aR*,7aS*)-4-4(R*)-6-(2-chloro-4-fluorophenyl)-2-(3,5-difluoropyridin-2-yl)-5-(methoxycarbonyl)-3,6-dihydropyrimidin-4-yl)methyl)hexahydropyrrolo[3,4-b][1,4]oxazine-6(2H)-carboxylate, reference compound]: the concentration giving a half-maximal response (EC50) in data set [1] (setting [3]) is over 1 µM. The CC50 at 6 days in data set [2] amounted to 11.7 µM.
On to `CCOC(=O)C1=C(CN2CCO[C@H]3CN(CC(C)(C)C(=O)O)C(=O)[C@H]32)NC(c2nccs2)=N[C@H]1c1cccc(F)c1C` (single isomer, unassigned) [Compound I-3B, (S)-3-((4aS*,7aS*)-4-((5-(Ethoxycarbonyl)-6-(3-fluoro-2-methylphenyl)-2-(thiazol-2-yl)-3,6-dihydropyrimidin-4-yl)methyl)-5-oxohexahydropyrrolo[3,4-b][1,4]oxazin-6(2H)-yl)-2,2-dimethylpropanoic acid], for which the 50% effective concentration (EC50) in data set [1] (setting [3]) amounted to 0.0052 µM. The half-maximal cytotoxic concentration (CC50) at 6 days in data set [2] came out at 60.2 µM.
On to `CCOC(=O)C1=C(CN2CCO[C@@H]3CN(C4CCC(C(=O)O)C4)C[C@@H]32)NC(c2nccs2)=N[C@H]1c1cccc(F)c1C` (some centres unmarked) [Compound I-5], for which the response in data set [1] was half-maximal at 0.086 µM (EC50). The same compound registered a half-maximal cytotoxic concentration (CC50) at 6 days in data set [2] of 40.6 µM.
For `CCOC(=O)C1=C(CN2CCO[C@@H]3CN(S(C)(=O)=O)C[C@@H]32)NC(c2nccs2)=N[C@H]1c1cccc(F)c1C` (racemic) [Compound I-7F, (S)-(cis)-Ethyl 4-(3-fluoro-2-methylphenyl)-6-((6-(methylsulfonyl)hexahydropyrrolo[3,4-b][1,4]oxazin-4(4aH)-yl)methyl)-2-(thiazol-2-yl)-1,4-dihydropyrimidine-5-carboxylate], in data set [1] (setting [3]), the concentration for a half-maximal effect (EC50) turned out to be 0.008 µM. Besides, the 50% cytotoxic concentration (CC50) at 6 days in data set [2] is 26.4 µM.
For `CCOC(=O)C1=C(CN2CCO[C@H]3CN(C(=O)C(C)(C)C(=O)O)C[C@H]32)NC(c2nccs2)=N[C@H]1c1cccc(F)c1C` (relative stereo) [Compound I-12A, 3-((4aR*,7aS*)-4-4(S)-5-(ethoxycarbonyl)-6-(3-fluoro-2-methylphenyl)-2-(thiazol-2-yl)-3,6-dihydropyrimidin-4-yl)methyl)hexahydropyrrolo[3,4-b][1,4]oxazin-6(2H)-yl)-2,2-dimethyl-3-oxopropanoic acid], the midpoint of the response in data set [1], the EC50, lay at 0.31 µM. In data set [2], this compound yielded a CC50 at 6 days of over 100 µM.
`CCOC(=O)C1=C(CN2CCO[C@H]3CN(CC(C)(C)C(=O)O)C[C@H]32)NC(c2nccs2)=N[C@H]1c1cccc(F)c1Cl` (single isomer, unassigned) [Compound I-13A, 3-((4aR*,7aS*)-4-0(R*)-6-(2-Chloro-3-fluorophenyl)-5-(ethoxycarbonyl)-2-(thiazol-2-yl)-3,6-dihydropyrimidin-4-yl)methyl)hexahydropyrrolo[3,4-b][1,4]oxazin-6(2H)-yl)-2,2-dimethylpropanoic acid]: the EC50 in data set [1] (setting [3]) was 0.013 µM. This compound registered a cytotoxic concentration (CC50) at 6 days in data set [2] of 67.1 µM.
